Source: patent US8906829B2, “Synergistic algicidal compositions including hydrazone derivatives and copper” (Dow AgroSciences LLC, priority 2010, dated 2014)

Key:
[1] = test system: Synechocystis sp. strain 6803; experiment: Effect of copper on activity of hydrazones: in vitro growth inhibition of Synechocystis in BG-11 Cu minus / Cu plus medium (Example 11); assay type: cell-based; conditions: 72 h; for inhibition of growth at 0.05 µg/mL / inhibition of growth at 0.0125 µg/mL: Synechocystis, BG-11 Cu minus medium, read-out: % Inhn. Minus Copper Observed; for % Inhn. Plus Copper Observed: BG-11 Cu plus medium
Method: In vitro toxicity assays against the cyanobacterium (blue-green alga) Synechocystis sp. strain 6803 were conducted using BG-11 medium except that copper micronutrient, normally included as CuSO4.5H2O, was omitted. The medium, termed BG-11 Cu minus, was prepared by dissolving 1.5 g NaNO3, 40 mg K2HPO4, 6 mg citric acid, 1 mg Na2EDTA and 20 mg Na2CO3 in 1 liter of milli Q water and treating the solution with 0.5 g Chelex 100 resin (Bio-Rad Analytical grade, 50-100 mesh, sodium form, cat#142-2822) by stifling at room temperature for 1 h. 900 mL were decanted and 67.5 mg MgSO4.7H2O, 32.4 mg […], 5.4 mg ferric ammonium citrate and 0.9 mL trace metal mix A5 without copper (2.86 g H3BO3, 1.81 g MnCl2.4H2O, 222 mg ZnSO4.7H2O, 390 mg Na2MoO4.2H2O and Co(NO3)2.6H2O in 1 L Milli Q water) was added. The pH was adjusted to 7.1 and the medium was filter-sterilized. Medium containing copper (BG-11 Cu plus) was prepared by adding CuCl2.2H2O to the BG-11 Cu minus medium at 0.2 μM. Test compounds were dissolved in dimethylsulfoxide (DMSO) at 2 mg/mL then appropriate dilutions in BG-11 Cu minus and BG-11 Cu plus media were prepared in sterilized microcentrifuge tubes. 100 μL aliquots were dispensed into flat-bottomed 96-well microtiter plates. Synechocystis was maintained under 24 h of light on BG-11 agar plates at 27° C. A loopful of cells was added to 50 mL of BG-11 Cu minus growth medium and the culture was incubated with shaking at 200 rpm at 27° C. for 24 h. The culture (10 to 20 mL aliquot) was centrifuged in a bench centrifuge at 2400 rpm for 2 min. The resulting cell pellet was resuspended in 5 mL sterile milli Q water (which had been treated with Chelex 100 resin using 0.5 g resin per liter of water by stirring at room temperature for 1 h), and recentrifuged. The cells were resuspended in BG-11 Cu minus medium, and the suspension adjusted to 4×10^5 spores per mL. Microtiter plates containing compounds as described above were inoculated with 100 μL of this cell suspension and the plates incubated at 27° C. for 72 h before assessing algal growth by measuring light scattering in a NepheloStar plate reader. Growth inhibition was determined by comparing growth in the presence of test compound with growth in control wells lacking test compound. Results for growth inhibition by test compounds in BG-11 Cu plus medium (% Inhn Plus Copper Observed) were compared with predicted values (% Inhn Plus Copper Predicted) that were calculated using the formula set forth by S. R. Colby in Weeds 1967, 15, 20-22 based on-results obtained for the same compounds in BG-11 Cu minus medium (% Inhn Minus Copper Observed) and the inhibition attributed to copper chloride alone, as determined by comparing growth in copper-minus and copper-plus media without any test compound across experiments. Results illustrate that hydrazones and copper produce a synergistic algicidal effect towards Synechocystis.

C. reinhardtii CC-1928 = experiment: Effect of copper on activity of hydrazones: in vitro growth inhibition of C. reinhardtii in TAP Cu minus / TAP Cu plus medium (Example 10); assay type: cell-based, Chlamydomonas reinhardtii; conditions: test compound 1 μg/mL, 48 h; for inhibition of growth at 1 µg/mL: Chlamydomonas reinhardtii, TAP Cu minus medium, read-out: % Inhn. Minus Copper Observed; for % Inhn. Plus Copper Observed: TAP Cu plus medium (CuCl2)
Method: In vitro toxicity assays against C. reinhardtii CC-1928 (wild type mt+137c green in dark subclone) obtained from the Chlamydomonas Resource Center at Duke University were conducted using TAP liquid growth medium described by Gorman and Levine Proc. Natl. Acad. Sci. USA 1965, 54, 1665-1669 except that CuSO4.5H2O, normally included as a component of Hutner's trace element stock solution (Hutner et al. Proc. Am. Philos. Soc. 1950, 94, 152-170), was omitted. The TAP medium lacking Cu (TAP Cu minus) was prepared by adding 400 mg NH4Cl, 10 mL of 100× Tris-Acetate (242 g Tris-base and 100 mL glacial acetic acid in 1000 mL milli Q water), and 8.3 mL of 120.5× phosphate buffer (14.34 g K2HPO4 and 7.26 g KH2PO4 in 1000 mL milli Q water) to milli Q water to make a total volume of 1 liter. The medium was treated with 0.5 g Chelex 100 resin (Bio-Rad Analytical grade, 50-100 mesh, sodium form, cat#142-2822) by stirring at room temperature for 1 hour. 900 mL were decanted and 45.9 mg of CaCl2.2H2O, 90 mg of MgSO4.7H2O and 0.9 mL Hutner's trace elements lacking CuSO4.5H2O were added and the solution was filter-sterilized. Medium containing copper (TAP Cu plus) was prepared by adding CuCl2.2H2O to the TAP Cu minus medium at 20 μM. Test compounds were dissolved in dimethylsulfoxide (DMSO) at 2 mg/mL then dilutions in TAP Cu minus and TAP Cu plus media were prepared in sterilized microcentrifuge tubes at 2 μg/mL. 100 μL aliquots of diluted compound were dispensed into flat-bottomed 96-well microtiter plates. C. reinhardtii was maintained under 12 h of light on TAP agar plates at 18° C. A loopful of cells was added to 50 mL of TAP Cu minus medium and the culture incubated with shaking at 200 rpm at 27° C. for 24 h. The culture (10 to 20 mL aliquot) was centrifuged in a bench centrifuge at 2000 rpm for 2 min. The resulting cell pellet was resuspended in 5 mL sterile milli Q water (which had been treated with Chelex 100 resin using 0.5 g resin per liter of water by stirring at room temperature for 1 h), and recentrifuged. The cells were resuspended in TAP Cu minus medium, and the suspension adjusted to 2×10^5 spores per mL. Microtiter plates containing compounds as described above were inoculated with 100 μL of this cell suspension and the plates incubated at 27° C. for 48 h before assessing algal growth by measuring light scattering in a NepheloStar plate-reader. Growth inhibition was determined by comparing growth in the presence of test compound with growth in control wells lacking test compound. Results for growth inhibition by test compounds at 1 μg/mL in TAP Cu plus medium (% Inhn Plus Copper Observed) were compared with predicted values (% Inhn Plus Copper Predicted) that were calculated using the formula set forth by S. R. Colby in Weeds 1967, 15, 20-22 based on results obtained for the same compounds in TAP Cu minus medium (% Inhn Minus Copper Observed). […] Results illustrate that hydrazones and copper produce a synergistic algicidal effect towards C. reinhardtii.

Row | melting point | Structure (SMILES) | inhibition of growth at 0.05 µg/mL ([1]; Test Concn. 0.05 μg/mL) | % Inhn. Plus Copper Observed ([1]; Test Concn. 0.05 μg/mL) | inhibition of growth at 1 µg/mL (C. reinhardtii CC-1928) | % Inhn. Plus Copper Observed (C. reinhardtii CC-1928) | inhibition of growth at 0.0125 µg/mL ([1]; Test Concn. 0.0125 μg/mL) | % Inhn. Plus Copper Observed ([1]; Test Concn. 0.0125 μg/mL)
1 | 215 to 218 °C | O=C(N/N=C/c1ccc(Cl)c(Cl)c1O)c1cccc(F)c1 [Compound 39] | 31% | 92% | 8% | 91% |  | 
2 | 258 to 260 °C | O=C(N/N=C/c1cc(Cl)cc(C(F)(F)F)c1O)c1ccccc1O [Compound 48] | 32% | 95% | 18% | 92% |  | 
3 | 284 to 287 °C | O=C(N/N=C/c1cccc(Cl)c1O)c1ccc([N+](=O)[O-])cc1 [Compound 53] | 45% | 94% | 8% | 88% |  | 
4 | 215 to 216 °C | O=C(N/N=C/c1cccc(C(F)(F)F)c1O)c1ccc(Cl)cc1 [Compound 35] | 26% | 91% | 9% | 97% |  | 
5 | 255 to 257 °C | Cc1ccc(C(=O)N/N=C/c2cc(C(F)(F)F)cc(Cl)c2O)c(O)c1 [Compound 31] | 38% | 92% | -1% | 88% |  | 
6 | 210 to 212 °C | O=C(N/N=C/c1cc(C(F)(F)F)cc(Cl)c1O)c1cccc(F)c1 [Compound 28] | 13% | 96% | 12% | 97% |  | 
7 | 200 to 202 °C | O=C(N/N=C/c1cc(C(F)(F)F)cc(Cl)c1O)c1ccc(F)cc1 [Compound 29] | 11% | 96% | 16% | 96% |  | 
8 | 278 to 280 °C | O=C(N/N=C/c1c(C(F)(F)F)ccc(Cl)c1O)c1ccccc1O [Compound 57] | 61% | 92% | -11% | 95% |  | 
9 | 228 to 229 °C | O=C(N/N=C/c1cc(Cl)cc(C(F)(F)F)c1O)c1cccc(Cl)c1 [Compound 47] |  |  | -5% | 77% | 24% | 60%
10 | 248 to 253 °C | Cc1ccc(C(=O)N/N=C/c2cccc(C(F)(F)F)c2O)c(O)c1 [Compound 37] |  |  | 12% | 97% | 44% | 88%

More lines, now with the values behind:

Row | Structure (SMILES) | melting point | inhibition of growth at 0.05 µg/mL ([1]; Test Concn. 0.05 μg/mL) | % Inhn. Plus Copper Observed ([1]; Test Concn. 0.05 μg/mL) | inhibition of growth at 1 µg/mL (C. reinhardtii CC-1928) | % Inhn. Plus Copper Observed (C. reinhardtii CC-1928) | inhibition of growth at 0.0125 µg/mL ([1]; Test Concn. 0.0125 μg/mL) | % Inhn. Plus Copper Observed ([1]; Test Concn. 0.0125 μg/mL)
11 | O=C(N/N=C/c1c(Cl)ccc(Cl)c1O)c1cccc(Cl)c1 [Compound 44] | 232 to 234 °C | 61% | 93% | 11% | 94% |  | 
12 | Cc1ccc(C(=O)N/N=C/c2ccc(Cl)c(Cl)c2O)c(O)c1 [Compound 41] | 271 to 278 °C |  |  | 28% | 96% | 26% | 93%
13 | O=C(N/N=C/c1cccc(C(F)(F)F)c1O)c1ccccc1O [Compound 36] | 230 to 234 °C |  |  | 7% | 96% | 28% | 87%
14 | C/C(=N\NC(=O)c1ccccc1Br)c1cc(Cl)cc(Cl)c1O [Compound 5] | 220 to 222 °C | -10% | 91% | 26% | 95% |  | 
15 | O=C(N/N=C/c1c(Cl)ccc(Cl)c1O)c1ccccc1O [Compound 46] | 260 to 262 °C |  |  | 0% | 92% | 37% | 80%
16 | C/C(=N\NC(=O)Cc1ccccc1)c1cc(Cl)cc(Cl)c1O [Compound 13] | 199 to 204 °C | 22% | 96% | 17% | 96% |  | 
17 | C/C(=N\NC(=O)c1ccccc1)c1cc(Br)cc(Br)c1O [Compound 61] | 242 to 245 °C | 61% | 96% | -56% | 94% |  | 
18 | Cc1ccc(C(=O)N/N=C/c2cccc(Cl)c2O)c(O)c1 [Compound 55] | 258 to 266 °C | 68% | 92% | -3% | 97% |  | 
19 | Cc1cccc(C(=O)N/N=C/c2c(Cl)ccc(Cl)c2O)c1 [Compound 42] | 214 to 216 °C | 10% | 94% | 10% | 96% |  | 
20 | O=C(N/N=C/c1cccc(Cl)c1O)c1cccc(Cl)c1 [Compound 51] | 174 to 178 °C | 17% | 97% | -13% | 96% |  | 
